From patent US20090022712A1, “Compositions and Methods for Inhibiting Leukocyte Function” (UNIVERSITY OF VIRGINIA PATENT FOUNDATION, priority 2006, published 2009)
Where a SMILES comes first, the peptide text is derived from it.

What was measured:
PMNs = assay: PMN oxidative burst (SOD-inhibitable reduction of cytochrome c); type: cell-based, human; conditions: TNF-α-primed adherent PMNs; peptide 20 μg/ml, dhCB 1 μg/ml
Protocol: Oxidative burst of adherent PMNs was quantified by measuring the superoxide dismutase (SOD)-inhibitable reduction of cytochrome c as described (67). Briefly, PMNs (1.5×10^6/ml in HBSS-0.1% human serum albumin) were incubated in polypropylene tubes (1 hour; 37° C.) in a shaking water bath with or without the PAK peptide (20 μg/ml). PMNs were transferred to a fibrinogen-coated 96 well tissue culture plate. Cytochrome c (1.44 mg/ml) and catalase (0.062 mg/ml) (both Sigma) were added to wells with or without TNF-alpha (10 U/ml). Optical density was measured at indicated times against matched controls with SOD at 550 nm. Some PMNs were treated with dihydrocytochalasin B (dhCB) (1 μg/ml) to disrupt cell spreading on the surface (68). These samples served as negative control.

[1] = test system: LPS-induced PMN migration into the lung; assay: Murine model of acute lung injury: LPS-induced PMN trafficking in the lung; conditions: application of the peptide in mice in vivo
Protocol: Wild type male C57B1/6 mice were obtained from Jackson Labs (Bar Harbor, Me.). […] Mice were eight to twelve weeks of age. Up to four mice were exposed to aerosolized LPS in a custom-built cylindrical chamber (20×9 cm) connected to an air nebulizer (MicroAir, Omron Healthcare, Vernon Hills, Ill.). […] Control mice were exposed to saline aerosol.
PMN recruitment into the different compartments of the lung pulmonary vasculature, interstitium, alveolar airspace) was assessed as described (81). […] After 5 minutes, mice were euthanized and non-adherent PMN were removed from the pulmonary vasculature by flushing 10 ml of PBS at 25 cm H20 through the spontaneously beating right ventricle. BAL was withdrawn and lungs were removed, minced, and digested in the presence of excess unlabeled anti-GR-1 to prevent possible binding of the injected antibody to extravascular PMN. A cell suspension was prepared by passing the digested lungs through a 70 μm cell strainer (BD Falcon, Bedford, Mass.). Total cells in BAL and lung were counted and percentage of PMNs determined by flow cytometry. […] In the lung, the expression of GR-1 was used to distinguish intravascular (CD45+7/4+GR-1^+) from interstitial (CD45+7/4+GR-1^−) PMNs, which were not reached by the injected antibody 82.

[2] = In vivo distribution of the PAK inhibitory peptide (flow cytometry); conditions: for uptake of peptide by blood neutrophils: 12 hours before sample
Protocol: Six hours after injection, PAK-positive cells were identified by flow cytometry and their expression of CD31 and CD45 was determined. In additional experiments, mice inhaled LPS after an intraperitoneal injection of the fluorescent PAK peptide. Twelve hours later, PMNs were identified in blood, lungs, and BAL by their expression of CD45, GR-1, and 7/4 and investigated for their peptide uptake. In some experiments, lungs from these mice were fixed for confocal microscopy.

adaptor protein Nck = adaptor protein Nck (UniProt P16333); assay: cell-based or functional assay

## C=C1[C@@H](C)[C@H]2[C@H](Cc3ccccc3)NC(=O)[C@]23OC(=O)CC[C@H](O)CCC[C@@H](C)C/C=C/[C@H]3[C@@H]1O [dihydrocytochalasin B]
PMNs
  adhesion-induced oxidative burst (superoxide production): reduced

## CSCC[C@H](NC(=O)[C@@H](NC(=O)[C@H](CO)NC(=O)[C@@H](NC(=O)[C@H](CC(N)=O)NC(=O)[C@H](CCCNC(=N)N)NC(=O)[C@H](CCSC)NC(=O)[C@@H]1CCCN1C(=O)[C@@H]1CCCN1C(=O)[C@H](C)NC(=O)[C@@H]1CCCN1C(=O)[C@@H]1CCCN1C(=O)[C@H](CCCCN)NC(=O)CNC(=O)[C@H](CCCNC(=N)N)NC(=O)[C@H](CCCNC(=N)N)NC(=O)[C@H](CCCNC(=N)N)NC(=O)[C@H](CCC(N)=O)NC(=O)[C@H](CCCNC(=N)N)NC(=O)[C@H](CCCNC(=N)N)NC(=O)[C@H](CCCCN)NC(=O)[C@H](CCCCN)NC(=O)[C@H](CCCNC(=N)N)NC(=O)CNC(=O)[C@@H](N)Cc1ccc(O)cc1)[C@@H](C)O)[C@@H](C)O)C(=O)O [tat-PAK peptide] (H-YGRKKRRQRRRGKPPAPPMRNTSTM-OH; N-terminus and C-terminus assumed)
[1]
  adverse side effects: no apparent adverse side effects
[2]; i.v. 1 mg, 12 h, LPS
  PMNs in the BAL containing peptide: almost all neutrophils found in the BAL are non-fluorescent
  PMNs in the lung containing peptide: one-third
[2]; i.v. 1 mg
  uptake of peptide by blood neutrophils: taken up by neutrophils
[2]; i.v. 1 mg, listed as PAK peptide
  uptake of peptide by blood neutrophils: most PMNs are PAK peptide+
[2]; intraperitoneal, six hours after injection, lung cell suspension
  share of peptide-positive lung cells that are CD45 positive: 80%

## tat-PAK peptide (inhibitory PAK peptide; first proline-rich domain of PAK fused to the HIV TAT transduction sequence)
Adaptor protein Nck
  F-actin content in CXCL1-stimulated human PMNs (flow cytometry): 30 fold
